Patent publication US20240197746A1, “COMBINATION THERAPY WITH A MEK INHIBITOR AND A SRC INHIBITOR FOR THE TREATMENT OF COLORECTAL CANCER” (Yeda Research and Development Co. Ltd., priority 2021, published 2024)
Like-named read-outs stand apart in the source and are kept apart here.

System: fresh & PDX human tumors
Assay: EVOC drug dose calibration, cell death by H&E viability score
Assay type: cell-based
Source text: Tissue acquisition and EVOC. Female NOD scid gamma (NSG) mice (4-6 months old) bearing PDX tumors were purchased from Jackson Laboratories. Mice arrived to the facility when the tumors had grown sufficiently to be apparent (approximately 60 mm^3) and were maintained until the maximal permitted tumor volume of 1,000 mm^3 was achieved. Mice were killed with CO2, and tumor tissues were removed and placed in ice-cold PBS. Tumors were sliced into 250-μm-thick slices using a vibratome (VF300, Precisionary Instruments) and placed in six-well plates on titanium grids (MA0036, Alabama R&D) with 4 ml of DMEM/F12 medium (supplemented with 5% fetal calf serum, 100 IU ml^−1 penicillin with 100 μg ml−1 streptomycin, 2.5 μg ml^−1 amphotericin B, […] gentamicin sulfate and 100 μl ml−1 l-glutamine). Tissue was cultured at 37° C. with 5% CO2 and 80% O2 on an orbital shaker (TOU-120N, MRC) at 70 r.p.m. The following day, tissue was treated with drugs as indicated for 96 h (medium was changed after 48 h and fresh drug was added), followed by formalin fixing and paraffin embedding after overnight fixation in 4% paraformaldehyde. Note that duplicates and triplicates were assigned randomly to mimic heterogeneity within the tumor tissue in vivo.
Human tumor tissue, either from primary colon cancer or metastatic lesions, was obtained from individuals at the time of operation or at the time of tissue core biopsy. After resection, the fresh tissue was placed in ice-cold PBS for immediate transfer to the lab for EVOC. Specimens were coded anonymously before their arrival to the lab. Forty-six individuals were enrolled in the study and had sufficient tumor volume at operation or accessible tumors for core biopsy to allow us to perform EVOC. In one individual, both primary and metastatic cancer tissue was obtained so that 47 samples in total were studied. In 14 individuals, there was either adenoma or not enough tumor tissue for evaluation. In an additional three individuals, the tissue was necrotic before slicing and EVOC. In one individual, the tissue culture was contaminated, and in one individual, the fixation was insufficient. Finally, 29 CRC primary or metastatic tumors from 28 individuals were analyzed by EVOC.
Histologic sections were assessed for viability by an independent blinded pathologist. Tissue viability was scored on a scale from 0 to 4, where 0 is less than 10% viable tissue and 4 is more than 90% viable tissue. Scores of 3, 2 and 1 correspond to tissue viability of 61-90%, 31-60% and 10-30%, respectively.
Determination of drug treatment concentrations. To determine the concentration of each drug to be used in the ex vivo screen, we first calibrated the effect of multiple concentrations of each drug on PDX CRC tumors. For the screens, we selected the doses that were minimally effective in killing tissue after 4 d of treatment as evaluated by H&E staining. […] In addition, when testing targeted therapies, the present inventors validated that the chosen drug concentrations were effective in inhibiting their targets. This was evaluated by immunohistochemical staining after 24 h of treatment (FIGS. 11A-C). Here again, the lowest drug concentration that was enough to inhibit the drug target was used.

[1] = EVOC, concentrations that demonstrate a difference in amount of cell death in individual patient tissues

SMILES	Range eliciting differential response [µM]	Range eliciting differential response [1]
O=C1[O][Pt]2([NH][C@@H]3CCCC[C@H]3[NH]2)[O]C1=O [Oxaliplatin]	2 to 64	–
Cl.Cl.O=S(=O)(NCCNC/C=C/c1ccc(Br)cc1)c1cccc2cnccc12 [H89 2HCl, H-89 dihydrochloride]	–	1 to 16 µM
N.N.[Cl][Pt][Cl] [Cisplatin]	–	0.3-30^ uM
Cc1cc(Nc2cc(N3CCN(C)CC3)nc(Sc3ccc(NC(=O)C4CC4)cc3)n2)n[nH]1 [VX-680]	–	1 to 16 µM
COc1ccc(C2=N[C@@H](c3ccc(Cl)cc3)[C@@H](c3ccc(Cl)cc3)N2C(=O)N2CCNC(=O)C2)c(OC(C)C)c1 [Nutlin]	–	4 to 16 µM
